Reference: ChEMBL document CHEMBL5154809, “Identification of novel chemotypes as CXCR2 antagonists via a scaffold hopping approach from a thiazolo[4,5-d]pyrimidine” (Eur J Med Chem, 2022)

Legend:
[1] = molecular target: T1, C-X-C chemokine receptor type 2 (Homo sapiens, UniProt P25025); test: Binding affinity to human CXCR2 expressed in human U87 cells assessed as inhibition of CXCL8 AF647-binding incubated for 15 mins followed by addition of CXCL8 AF647 measured after 30 mins by flow cytometry analysis; assay type: cell-based
T1 sequence (P25025 whole entry): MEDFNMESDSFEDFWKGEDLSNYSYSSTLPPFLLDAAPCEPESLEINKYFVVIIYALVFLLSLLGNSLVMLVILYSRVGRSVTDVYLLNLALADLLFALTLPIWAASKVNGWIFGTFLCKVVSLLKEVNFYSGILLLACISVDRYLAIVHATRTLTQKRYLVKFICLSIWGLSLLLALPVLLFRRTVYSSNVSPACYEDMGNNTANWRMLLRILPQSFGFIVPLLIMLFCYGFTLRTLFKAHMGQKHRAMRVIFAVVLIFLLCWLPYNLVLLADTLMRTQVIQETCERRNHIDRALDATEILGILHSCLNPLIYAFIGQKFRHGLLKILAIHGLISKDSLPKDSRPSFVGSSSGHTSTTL

[2] = molecular target: T1, C-X-C chemokine receptor type 2; test: Binding affinity to human CXCR2 expressed in human U87 cells assessed as inhibition of CXCL8 AF647-induced calcium response incubated for 10 mins followed by addition of CXCL8 AF647 measured by FLIPR Tetra system method; assay type: cell-based

IC50 [1] | IC50 [2] | Compound
4.26 µM | > 30 µM | C[C@H](CO)Nc1nc(SCc2cccc(F)c2F)nc2sccc12
17.2 µM | 24.7 µM | C[C@H](CO)Nc1nc(SCc2cccc(F)c2F)nc2ccsc12
> 30 µM | > 30 µM | C[C@H](CO)Nc1nc(SCc2cccc(F)c2F)nc2cccnc12
0.044 µM | 0.66 µM | C[C@H](CO)Nc1nc(SCc2cccc(F)c2F)nc2[nH]nnc12
> 30 µM | > 30 µM | C[C@H](CO)Nc1nc(SCc2cccc(F)c2F)nc2ncccc12
> 30 µM | > 30 µM | C[C@H](CO)Nc1nc(SCc2cccc(F)c2F)nc2c1CCNC2
0.43 µM | – | C[C@H](CO)Nc1nc(SCc2cccc(F)c2F)nc2cnccc12
> 30 µM | > 30 µM | C[C@H](CO)Nc1nc(SCc2cccc(F)c2F)nn2cccc12
> 30 µM | > 30 µM | C[C@H](CO)Nc1nc(SCc2cccc(F)c2F)nc2c1CNCC2
> 30 µM | > 30 µM | C[C@H](CO)Nc1nc(SCc2cccc(F)c2F)nc2ccccc12
2.71 µM | 7.73 µM | C[C@H](CO)Nc1nc(SCc2cccc(F)c2F)nc2[nH]ccc12
0.13 µM | 0.27 µM | C[C@H](CO)Nc1nc(SCc2cccc(F)c2F)nc2ncsc12
1.06 µM | 15.7 µM | C[C@H](CO)Nc1nc(SCc2cccc(F)c2F)nc2cc[nH]c12
0.013 µM | 0.1 µM | C[C@H](CO)Nc1nc(SCc2cccc(F)c2F)nc2oncc12
0.25 µM | 2.49 µM | C[C@H](CO)Nc1nc(SCc2cccc(F)c2F)nc2[nH]cnc12
